From PubChem BioAssay (NCI)
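1) Cells in 96-well plates. 2) Compound, 48 h, 5 concentrations. 3) Linear interpolation between surrounding doses. 4) Unreached endpoint = highest concentration. TGI marks complete inhibition of growth.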

What was measured:
Assay in all cases: NCI anticancer screen, dose series, 48 h
786-0 renal = test system: 786-0 renal
A498 renal = test system: A498 renal
A549 NSCLC = test system: A549 NSCLC
ACHN renal = test system: ACHN renal
BT-549 breast = test system: BT-549 breast
CAKI-1 renal = test system: CAKI-1 renal
CCRF-CEM leukemia = test system: CCRF-CEM leukemia
COLO 205 colon = test system: COLO 205 colon
DU-145 prostate = test system: DU-145 prostate
EKVX NSCLC = test system: EKVX NSCLC
HCC-2998 colon = test system: HCC-2998 colon
HCT-116 colon = test system: HCT-116 colon
HCT-15 colon = test system: HCT-15 colon
HL-60(TB) leukemia = test system: HL-60(TB) leukemia
HOP-62 NSCLC = test system: HOP-62 NSCLC
HS 578T breast = test system: HS 578T breast
HT29 colon = test system: HT29 colon
IGROV1 ovarian = test system: IGROV1 ovarian
K-562 leukemia = test system: K-562 leukemia
KM12 colon = test system: KM12 colon
M14 melanoma = test system: M14 melanoma
MALME-3M melanoma = test system: MALME-3M melanoma
MCF7 breast = test system: MCF7 breast
MDA-MB-231 breast = test system: MDA-MB-231 breast
MDA-MB-435 = test system: MDA-MB-435
MDA-N = test system: MDA-N
MOLT-4 leukemia = test system: MOLT-4 leukemia
NCI-H226 lung = test system: NCI-H226 lung
NCI-H23 lung = test system: NCI-H23 lung
NCI-H460 lung = test system: NCI-H460 lung
NCI-H522 lung = test system: NCI-H522 lung
NCI/ADR-RES ovarian = test system: NCI/ADR-RES ovarian
OVCAR-3 ovarian = test system: OVCAR-3 ovarian
OVCAR-4 ovarian = test system: OVCAR-4 ovarian
OVCAR-5 ovarian = test system: OVCAR-5 ovarian
OVCAR-8 ovarian = test system: OVCAR-8 ovarian
PC-3 prostate = test system: PC-3 prostate
RPMI-8226 leukemia = test system: RPMI-8226 leukemia
RXF 393 renal = test system: RXF 393 renal
SF-268 CNS = test system: SF-268 CNS
SF-295 CNS = test system: SF-295 CNS
SF-539 CNS = test system: SF-539 CNS
SK-MEL-2 melanoma = test system: SK-MEL-2 melanoma
SK-MEL-28 melanoma = test system: SK-MEL-28 melanoma
SK-MEL-5 melanoma = test system: SK-MEL-5 melanoma
SK-OV-3 ovarian = test system: SK-OV-3 ovarian
SN12C renal = test system: SN12C renal
SNB-19 CNS = test system: SNB-19 CNS
SNB-75 CNS = test system: SNB-75 CNS
SR leukemia = test system: SR leukemia
SW-620 colon = test system: SW-620 colon
T-47D breast = test system: T-47D breast
TK-10 renal = test system: TK-10 renal
U251 CNS = test system: U251 CNS
UACC-257 melanoma = test system: UACC-257 melanoma
UACC-62 melanoma = test system: UACC-62 melanoma
UO-31 renal = test system: UO-31 renal
HOP-92 NSCLC = test system: HOP-92 NSCLC
LOX IMVI melanoma = test system: LOX IMVI melanoma

Compound: CC(=O)O[C@H]1C[C@H]2[C@@H]([C@H](OC(C)=O)C[C@@H]3CC4(CC[C@@]32C)OOC2(CCCCC2)OO4)[C@@H]2CC[C@H]([C@H](C)CCC(N)=O)[C@@]12C
- TGI (786-0 renal): 3.52 µM
- TGI (A498 renal): 18.1 µM
- TGI (A549 NSCLC): 2.93 µM
- TGI (ACHN renal): 3.12 µM
- TGI (BT-549 breast): 4.86 µM
- TGI (CAKI-1 renal): 2.14 µM
- TGI (CCRF-CEM leukemia): 3.13 µM
- TGI (COLO 205 colon): 3.68 µM
- TGI (DU-145 prostate): 3.52 µM
- TGI (EKVX NSCLC): 3.23 µM
- TGI (HCC-2998 colon): 7.41 µM
- TGI (HCT-116 colon): 11.2 µM
- TGI (HCT-15 colon): 5.31 µM
- TGI (HL-60(TB) leukemia): 3.81 µM
- TGI (HOP-62 NSCLC): 2.11 µM
- TGI (HS 578T breast): 19.7 µM
- TGI (HT29 colon): 14.3 µM
- TGI (IGROV1 ovarian): 0.474 µM
- TGI (K-562 leukemia): 6.02 µM
- TGI (KM12 colon): 3.3 µM
- TGI (M14 melanoma): 9.67 µM
- TGI (MALME-3M melanoma): 6.82 µM
- TGI (MCF7 breast): 9.29 µM
- TGI (MDA-MB-231 breast): 4.22 µM
- TGI (MDA-MB-435): 3.27 µM
- TGI (MDA-N): 3.71 µM
- TGI (MOLT-4 leukemia): 2.9 µM
- TGI (NCI-H226 lung): 6.8 µM
- TGI (NCI-H23 lung): 2.83 µM
- TGI (NCI-H460 lung): 5.06 µM
- TGI (NCI-H522 lung): 1.48 µM
- TGI (NCI/ADR-RES ovarian): 4.95 µM
- TGI (OVCAR-3 ovarian): 3.17 µM
- TGI (OVCAR-4 ovarian): 4.21 µM
- TGI (OVCAR-5 ovarian): 6.65 µM
- TGI (OVCAR-8 ovarian): 9.87 µM
- TGI (PC-3 prostate): 4.15 µM
- TGI (RPMI-8226 leukemia): 2.7 µM
- TGI (RXF 393 renal): 10.2 µM
- TGI (SF-268 CNS): 3.47 µM
- TGI (SF-295 CNS): 9.66 µM
- TGI (SF-539 CNS): 10.7 µM
- TGI (SK-MEL-2 melanoma): 4.48 µM
- TGI (SK-MEL-28 melanoma): 24.7 µM
- TGI (SK-MEL-5 melanoma): 5.24 µM
- TGI (SK-OV-3 ovarian): 25.5 µM
- TGI (SN12C renal): 5.5 µM
- TGI (SNB-19 CNS): 20.1 µM
- TGI (SNB-75 CNS): 4.89 µM
- TGI (SR leukemia): 1.88 µM
- TGI (SW-620 colon): 5.77 µM
- TGI (T-47D breast): 3.84 µM
- TGI (TK-10 renal): 6.27 µM
- TGI (U251 CNS): 3.15 µM
- TGI (UACC-257 melanoma): 19.9 µM
- TGI (UACC-62 melanoma): 6.31 µM
- TGI (UO-31 renal): 0.193 µM

Compound: COc1ccc2c3c(ccc2c1)NC(C(=O)O)CC3 (centres undefined)
- TGI (786-0 renal): > 100 µM
- TGI (A498 renal): > 100 µM
- TGI (A549 NSCLC): > 100 µM
- TGI (ACHN renal): > 100 µM
- TGI (BT-549 breast): > 100 µM
- TGI (CAKI-1 renal): > 100 µM
- TGI (COLO 205 colon): > 100 µM
- TGI (DU-145 prostate): > 100 µM
- TGI (EKVX NSCLC): > 100 µM
- TGI (HCC-2998 colon): > 100 µM
- TGI (HCT-116 colon): > 100 µM
- TGI (HCT-15 colon): > 100 µM
- TGI (HL-60(TB) leukemia): 82.9 µM
- TGI (HOP-62 NSCLC): > 100 µM
- TGI (HOP-92 NSCLC): > 100 µM
- TGI (HS 578T breast): > 100 µM
- TGI (HT29 colon): > 100 µM
- TGI (IGROV1 ovarian): > 100 µM
- TGI (K-562 leukemia): > 100 µM
- TGI (KM12 colon): > 100 µM
- TGI (LOX IMVI melanoma): > 100 µM
- TGI (M14 melanoma): > 100 µM
- TGI (MALME-3M melanoma): > 100 µM
- TGI (MCF7 breast): > 100 µM
- TGI (MDA-MB-231 breast): > 100 µM
- TGI (MDA-MB-435): > 100 µM
- TGI (MDA-N): > 100 µM
- TGI (MOLT-4 leukemia): 56.9 µM
- TGI (NCI-H226 lung): > 100 µM
- TGI (NCI-H23 lung): > 100 µM
- TGI (NCI-H460 lung): > 100 µM
- TGI (NCI-H522 lung): > 100 µM
- TGI (NCI/ADR-RES ovarian): > 100 µM
- TGI (OVCAR-3 ovarian): > 100 µM
- TGI (OVCAR-4 ovarian): > 100 µM
- TGI (OVCAR-5 ovarian): > 100 µM
- TGI (OVCAR-8 ovarian): > 100 µM
- TGI (PC-3 prostate): > 100 µM
- TGI (RPMI-8226 leukemia): 54.1 µM
- TGI (RXF 393 renal): > 100 µM
- TGI (SF-268 CNS): > 100 µM
- TGI (SF-295 CNS): > 100 µM
- TGI (SF-539 CNS): > 100 µM
- TGI (SK-MEL-2 melanoma): > 100 µM
- TGI (SK-MEL-28 melanoma): > 100 µM
- TGI (SK-MEL-5 melanoma): 64.7 µM
- TGI (SK-OV-3 ovarian): > 100 µM
- TGI (SN12C renal): > 100 µM
- TGI (SNB-19 CNS): > 100 µM
- TGI (SNB-75 CNS): > 100 µM
- TGI (SR leukemia): 58.4 µM
- TGI (SW-620 colon): > 100 µM
- TGI (T-47D breast): 79.1 µM
- TGI (TK-10 renal): > 100 µM
- TGI (U251 CNS): > 100 µM
- TGI (UACC-257 melanoma): > 100 µM
- TGI (UACC-62 melanoma): > 100 µM
- TGI (UO-31 renal): > 100 µM

Compound: COCn1c(=O)n(C)c(=O)c2c1nc1c(c(=O)n(C)c(=O)n1COC)[n+]2[O-]
- TGI (786-0 renal): > 100 µM
- TGI (A498 renal): 82.8 µM
- TGI (A549 NSCLC): 91.2 µM
- TGI (ACHN renal): 38 µM
- TGI (BT-549 breast): 87.1 µM
- TGI (CAKI-1 renal): 64.5 µM
- TGI (CCRF-CEM leukemia): 27.4 µM
- TGI (COLO 205 colon): 31.8 µM
- TGI (DU-145 prostate): 94.9 µM
- TGI (EKVX NSCLC): 44.1 µM
- TGI (HCC-2998 colon): 18.1 µM
- TGI (HCT-116 colon): 39.5 µM
- TGI (HCT-15 colon): 30.6 µM
- TGI (HL-60(TB) leukemia): 39.1 µM
- TGI (HOP-62 NSCLC): 59.1 µM
- TGI (HOP-92 NSCLC): 42 µM
- TGI (HS 578T breast): 50.1 µM
- TGI (HT29 colon): > 100 µM
- TGI (IGROV1 ovarian): 48.9 µM
- TGI (K-562 leukemia): 24 µM
- TGI (KM12 colon): > 100 µM
- TGI (LOX IMVI melanoma): 27.7 µM
- TGI (M14 melanoma): 43.9 µM
- TGI (MALME-3M melanoma): 31.3 µM
- TGI (MCF7 breast): > 100 µM
- TGI (MDA-MB-231 breast): 44.4 µM
- TGI (MDA-MB-435): 40.2 µM
- TGI (MDA-N): 76.9 µM
- TGI (MOLT-4 leukemia): 29.5 µM
- TGI (NCI-H226 lung): 40.8 µM
- TGI (NCI-H23 lung): 14 µM
- TGI (NCI-H460 lung): 24.9 µM
- TGI (NCI-H522 lung): 44 µM
- TGI (NCI/ADR-RES ovarian): > 100 µM
- TGI (OVCAR-3 ovarian): 44.1 µM
- TGI (OVCAR-4 ovarian): 43.4 µM
- TGI (OVCAR-5 ovarian): 97.2 µM
- TGI (OVCAR-8 ovarian): 45.1 µM
- TGI (PC-3 prostate): 34.1 µM
- TGI (RPMI-8226 leukemia): 37.8 µM
- TGI (RXF 393 renal): 10.9 µM
- TGI (SF-268 CNS): 77 µM
- TGI (SF-295 CNS): 55.4 µM
- TGI (SF-539 CNS): 39.2 µM
- TGI (SK-MEL-2 melanoma): 36.8 µM
- TGI (SK-MEL-28 melanoma): > 100 µM
- TGI (SK-MEL-5 melanoma): 19.7 µM
- TGI (SK-OV-3 ovarian): 36.1 µM
- TGI (SN12C renal): 83.7 µM
- TGI (SNB-19 CNS): > 100 µM
- TGI (SNB-75 CNS): 22.3 µM
- TGI (SR leukemia): 21.3 µM
- TGI (SW-620 colon): > 100 µM
- TGI (T-47D breast): 41.8 µM
- TGI (TK-10 renal): 58.8 µM
- TGI (U251 CNS): 59.6 µM
- TGI (UACC-257 melanoma): 54.8 µM
- TGI (UACC-62 melanoma): 33.7 µM
- TGI (UO-31 renal): > 100 µM
